Data on 14 molecules can be found in ChEMBL document CHEMBL3244322, “5-O-Alkylated derivatives of 5-hydroxy-2'-deoxyuridine as potential antiviral agents. Anti-herpes activity of 5-propynyloxy-2'-deoxyuridine” (J Med Chem, 1978).

Values after ≈ are worked out from the molar mass of the structure shown.

The subject of this assay is Vaccinia virus. The assay is described as follows: Antiviral activity against Vaccinia virus infected in primary rabbit kidney cells assessed as inhibition of virus-induced cytopathogenicity. The note with it: Orthopoxvirus vaccinia. Type of assay: functional. In general terms: Protection from cytopathic effect is a common read-out in antiviral testing.
Take `O=c1[nH]c(=O)n([C@@H]2O[C@H](CO)[C@@H](O)[C@H]2O)cc1OCc1ccc([N+](=O)[O-])cc1`: the MIC is more than 600 µM.
Then `O=c1[nH]c(=O)n([C@H]2C[C@H](O)[C@@H](CO)O2)cc1OCc1ccc([N+](=O)[O-])cc1`, with more than 260 µM; and `C=CCOc1cn([C@@H]2O[C@H](CO)[C@@H](O)[C@H]2O)c(=O)[nH]c1=O`, with more than 600 µM; and `Cc1ccc(COc2cn([C@@H]3O[C@H](CO)[C@@H](O)[C@H]3O)c(=O)[nH]c2=O)cc1`, with more than 600 µM.
Then `NC(=O)COc1cn([C@@H]2O[C@H](CO)[C@@H](O)[C@H]2O)c(=O)[nH]c1=O`, with more than 600 µM.
The figure for `O=c1[nH]c(=O)n([C@H]2C[C@H](O)[C@@H](CO)O2)cc1I` [IDOXURIDINE] is 1.4 µM (≈ 0.496 µg/mL); for `O=c1[nH]c(=O)n([C@@H]2O[C@H](CO)[C@@H](O)[C@H]2O)cc1OCc1ccccc1` it is more than 600 µM.
In the case of `NC(=O)COc1cn([C@H]2C[C@H](O)[C@@H](CO)O2)c(=O)[nH]c1=O`, the MIC is 130 µM (≈ 39.2 µg/mL).
For the molecule `C=CCOc1cn([C@H]2C[C@H](O)[C@@H](CO)O2)c(=O)[nH]c1=O`, the MIC was found to be 70 µM (≈ 19.9 µg/mL).
Consider `Nc1ncnc2c1ncn2[C@@H]1O[C@H](CO)[C@@H](O)[C@@H]1O` [VIDARABINE], for which the MIC stood at 1.4 µM (≈ 0.374 µg/mL).
The figure for `O=c1[nH]c(=O)n([C@H]2C[C@H](O)[C@@H](CO)O2)cc1OCc1ccccc1` is more than 300 µM; for `O=C(O)COc1cn([C@H]2C[C@H](O)[C@@H](CO)O2)c(=O)[nH]c1=O` it is more than 600 µM.
Then `C#CCOc1cn([C@H]2C[C@H](O)[C@@H](CO)O2)c(=O)[nH]c1=O`, with 35 µM (≈ 9.88 µg/mL).
`O=c1[nH]c(=O)n([C@H]2C[C@H](O)[C@@H](CO)O2)cc1O`: the MIC came to 14 µM (≈ 3.42 µg/mL).
